The results in this text go back to patent publication US4393225A, “AI-77 Compounds and pharmaceutically acceptable salts thereof” (Asahi Kasei Kogyo Kabushiki Kaisha, priority 1979, dated 1983).

One assay deals with ulcer. Nature of the assay: Anti-ulcer test (restraint and water immersion ulcer in rats, i.p.). The assay is classed as in vivo, Male Wistar rats. To be noted: Rattus norvegicus, ip; 25 mg/kg i.p.; read-out: % Inhibition of Ulcer. The gist of the method: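 Male Wistar rats (~150 g), fasted 24 h, dosed i.p. with compound in physiological saline; 1 h later restrained and immersed to xiphisternum in 21 °C water for 6 h. Stomachs examined microscopically, ulcers scored 0–3, and percent inhibition calculated.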
Regarding `CCNC(=O)CC(N)C(O)C(OC)C(=O)NC(CC(C)C)C1Cc2cccc(OC(=O)CC)c2C(=O)O1` (stereo not drawn) [VII-9-1], the inhibition in vivo at 25 mg/kg came out at 66%.

For the compound `CC(C)CC(NC(=O)C(O)C(O)C(N)CC(=O)NCC1CCCCC1)C1Cc2cccc(O)c2C(=O)O1` (stereo not drawn) [VII-1-12], the inhibition in vivo at 25 mg/kg was determined as 94%. As for `CNC(CC(N)=O)C(O)C(OC)C(=O)NC(CC(C)C)C1Cc2cccc(OC(C)=O)c2C(=O)O1` (stereo not drawn) [VII-27-1], the inhibition in vivo at 25 mg/kg came out at 66%.

The same assay, now with this note: Rattus norvegicus, ip; 50 mg/kg i.p.; read-out: % Inhibition of Ulcer.
Turning to `CC(=O)OC(C(=O)NC(CC(C)C)C1Cc2cccc(O)c2C(=O)O1)C1OC(=O)CC1NC(=O)CC(C)C` (stereo not drawn) [IIIa-2-3], the inhibition in vivo at 50 mg/kg turned out to be 44%. As for `CCCC(=O)NC1CC(=O)OC1C(OC(=O)CCC)C(=O)NC(CC(C)C)C1Cc2cccc(OCc3ccco3)c2C(=O)O1` (stereo not drawn) [IIIa-6-11], the inhibition in vivo at 50 mg/kg is 33%. For the compound `CC(C)CC(NC(=O)C(O)C1OC(=O)CC1NC(=O)C=Cc1ccoc1)C1Cc2cccc(O)c2C(=O)O1` (stereo not drawn) [IIIa-1-57], the inhibition in vivo at 50 mg/kg was determined as 56%. For `COC(C)CC(=O)Oc1cccc2c1C(=O)OC(C(CC(C)C)NC(=O)C(O)C1OC(=O)CC1N)C2` (stereo not drawn) [IIIa-12-6], the inhibition in vivo at 50 mg/kg was determined as 78%. As for `CCCCOC(C(=O)NC(CC(C)C)C1Cc2cccc(OCC)c2C(=O)O1)C1OC(=O)CC1NC(=O)c1ccc(C)cc1` (stereo not drawn) [IIIa-7-8], the inhibition in vivo at 50 mg/kg is 22%. For `CCCC(=O)NC1CC(=O)OC1C(OC(=O)CCC)C(=O)NC(CC(C)C)C1Cc2cccc(O)c2C(=O)O1` (stereo not drawn) [IIIa-2-11], the inhibition in vivo at 50 mg/kg stood at 33%.

`CCCCCCCCCCCCCCCCCCNC(=O)C=CC(O)C(O)C(=O)NC(CC(C)C)C1Cc2cccc(O)c2C(=O)O1` (stereo not drawn) [VIII-1-3]: the inhibition in vivo at 50 mg/kg is 44%. Same read-out and setting: next, `CCOc1cccc2c1C(=O)OC(C(CC(C)C)NC(=O)C(O)C1C=CC(=O)O1)C2` (stereo not drawn) [IVa-4-2]: 44%. As for `CCOc1cccc2c1C(=O)OC(C(CC(C)C)NC(=O)C(O)C1OC(=O)CC1NC(=O)c1cccs1)C2` (stereo not drawn) [IIIa-5-25], the inhibition in vivo at 50 mg/kg was 44%. With `CC(C)CC(NC(=NCCN1CCOCC1)C(O)C(O)C(N)CC(=O)O)C1Cc2cccc(O)c2C(=O)O1` (stereo not drawn) [Vb-1-44], the inhibition in vivo at 50 mg/kg turned out to be 94%.

With `CCCCNC1CC(=O)OC1C(OCCCC)C(=O)NC(CC(C)C)C1Cc2cccc(OC)c2C(=O)O1` (stereo not drawn) [IIIa-24-10], the inhibition in vivo at 50 mg/kg was 56%. Regarding `CCCCNC1CC(=O)OC1C(O)C(=O)NC(CC(C)C)C1Cc2cccc(OCCCC)c2C(=O)O1` (stereo not drawn) [IIIa-22-76], the inhibition in vivo at 50 mg/kg amounted to 94%. `CCOc1cccc2c1C(=O)OC(C(CC(C)C)NC(=O)C(O)C1OC(=O)CC1NC(=O)C(Cl)(Cl)Cl)C2` (stereo not drawn) [IIIa-5-13]: the inhibition in vivo at 50 mg/kg came out at 33%.

`CCCCOC(C(=O)NC(CC(C)C)C1Cc2cccc(O)c2C(=O)O1)C1OC(=O)CC1NC(C)=O` (stereo not drawn) [IIIa-8-1]: the inhibition in vivo at 50 mg/kg turned out to be 56%. As for `CC(=O)NC1CC(=O)OC1C(OC(C)=O)C(=O)NC(CC(C)C)C1Cc2cccc(OCC(C)C)c2C(=O)O1` (stereo not drawn) [IIIa-6-2], the inhibition in vivo at 50 mg/kg came to 33%. For the compound `CCNC1CC(=O)OC1C(O)C(=O)NC(CC(C)C)C1Cc2cccc(OCC(C)C)c2C(=O)O1` (stereo not drawn) [IIIa-22-10], the inhibition in vivo at 50 mg/kg stood at 83%. For `CCCC=Cc1ccc(C(=O)NC2CC(=O)OC2C(O)C(=O)NC(CC(C)C)C2Cc3cccc(O)c3C(=O)O2)cc1` (stereo not drawn) [IIIa-1-77], the inhibition in vivo at 50 mg/kg stood at 66%.

As to `CCOc1cccc2c1C(=O)OC(C(CC(C)C)NC(=O)C(O)C1OC(=O)CC1NC(C)=O)C2` (stereo not drawn) [IIIa-5-1], the inhibition in vivo at 50 mg/kg came to 44%.

As for `CC(=O)n1cc(C(=O)NC2CC(=O)OC2C(O)C(=O)NC(CC(C)C)C2Cc3cccc(O)c3C(=O)O2)c2ccccc21` (stereo not drawn) [IIIa-1-17], the inhibition in vivo at 50 mg/kg is 66%. With `CCOc1cccc2c1C(=O)OC(C(CC(C)C)NC(=O)C(OC(=O)CC)C1OC(=O)CC1NC(=O)C(Cl)(Cl)Cl)C2` (stereo not drawn) [IIIa-6-13], the inhibition in vivo at 50 mg/kg was 33%.

Staying with this assay, now noted: rat, in vivo.
`CC(C)CC(NC(=O)C(O)C(O)C(N)CC(=O)O)C1Cc2cccc(O)c2C(=O)O1` (stereo not drawn) [AI-77-B]: the “anti-ulcer activity (in words)” value was “high anti-ulcer activity”.
